# Legend:
# Test in all cases: Test D controlled growth environment herbicide test, pre- and postemergence
# Assay type in all cases: in vivo
# [1] = system: canarygrass (Phalaris minor)
# Outline: (§1)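 Pre-emergence: seeds sown in silt loam soil were sprayed with compound in a non-phytotoxic solvent mix containing surfactant. Post-emergence: plants at 2 to 18 cm (1- to 4-leaf stage) in peat moss/vermiculite medium got the same formulation. Visual 0–100 rating versus controls after 14 to 21 d.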
# [2] = system: blackgrass (Alopecurus myosuroides)
# Outline: as §1
# [3] = system: Russian thistle (Salsola kali)
# Outline: as §1
# [4] = system: galium (catchweed bedstraw, Galium aparine)
# Outline: as §1
# [5] = system: bluegrass (annual bluegrass, Poa annua)
# Outline: as §1
# [6] = system: field poppy (Papaver rhoeas)
# Outline: as §1
# [7] = system: ryegrass, Italian (Italian ryegrass, Lolium multiflorum)
# Outline: as §1
# [8] = system: pigweed (Amaranthus retroflexus)
# Outline: as §1
# [9] = system: kochia (Kochia scoparia)
# Outline: as §1
# [10] = system: foxtail, green (green foxtail, Setaria viridis)
# Outline: as §1
# [11] = system: buckwheat, wild (wild buckwheat, Polygonum convolvulus)
# Outline: as §1
# [12] = system: chickweed (common chickweed, Stellaria media)
# Outline: as §1
# [13] = system: wheat, winter (winter wheat, Triticum aestivum)
# Outline: as §1
# [14] = Postemergence, 31 g ai/ha, scale 0 to 100 (0 no effect, 100 complete control)
# [15] = Postemergence, 125 g ai/ha, visual rating on scale 0 (no effect) to 100 (complete control), 14 to 21 d
# [16] = Postemergence, 250 g ai/ha, scale 0 to 100 (0 no effect, 100 complete control)
# [17] = Preemergence, 125 g ai/ha, scale 0 to 100 (0 no effect, 100 complete control)
# [18] = Preemergence, 250 g ai/ha, scale 0 to 100 (0 no effect, 100 complete control)
# [19] = postemergence, 62 g ai/ha, scale 0 to 100, 0 no effect, 100 complete control
# [20] = Preemergence, 62 g ai/ha, scale 0 to 100 (0 no effect, 100 complete control)
compound,measurement,setting,value
C#CCOC(=O)Oc1c(C)nn(C)c(=O)c1-c1c(C)sc2ccc(C)cc12 [Compound 87],Canarygrass plant response rating,[1]; [14],55
same,"Plant response rating, Canarygrass",[1]; [15],85
same,"Plant response rating, Canarygrass",[1]; [16],90
same,"Plant response rating (scale of 0 to 100), Canarygrass","[1]; Preemergence, 31 g ai/ha",85
same,"Plant response rating (scale of 0 to 100), Canarygrass","[1]; Preemergence, 62 g ai/ha",90
same,"Plant response rating, Canarygrass",[1]; [17],90
same,"Plant response rating, Canarygrass",[1]; [18],95
same,"Plant response rating, Canarygrass",[1]; [19],80
same,Blackgrass plant response rating,[2]; [14],65
same,"Plant response rating, Blackgrass",[2]; [15],85
same,"Plant response rating, Blackgrass",[2]; [16],90
same,"Plant response rating (scale of 0 to 100), Blackgrass","[2]; Preemergence, 31 g ai/ha",70
same,"Plant response rating, Blackgrass",[2]; [20],75
same,"Plant response rating, Blackgrass",[2]; [17],80
same,"Plant response rating, Blackgrass",[2]; [18],80
same,"Plant response rating, Blackgrass",[2]; [19],75
same,Russian Thistle plant response rating,[3]; [14],60
same,"Plant response rating, Russian Thistle",[3]; [15],65
same,"Plant response rating, Russian Thistle",[3]; [16],75
same,"Plant response rating (scale of 0 to 100), Russian Thistle","[3]; Preemergence, 31 g ai/ha",5
same,"Plant response rating (scale of 0 to 100), Russian Thistle","[3]; Preemergence, 62 g ai/ha",15
same,"Plant response rating, Russian Thistle",[3]; [17],85
same,"Plant response rating, Russian Thistle",[3]; [18],100
same,"Plant response rating, Russian Thistle",[3]; [19],65
same,Galium plant response rating,[4]; [14],85
same,"Plant response rating, Galium",[4]; [15],100
same,"Plant response rating, Galium",[4]; [16],100
same,"Plant response rating (scale of 0 to 100), Galium","[4]; Preemergence, 31 g ai/ha",15
same,"Plant response rating (scale of 0 to 100), Galium","[4]; Preemergence, 62 g ai/ha",40
same,"Plant response rating, Galium",[4]; [17],60
same,"Plant response rating, Galium",[4]; [18],80
same,"Plant response rating, Galium",[4]; [19],100
same,Bluegrass plant response rating,[5]; [14],25
same,"Plant response rating, Bluegrass",[5]; [15],45
same,"Plant response rating, Bluegrass",[5]; [16],45
same,"Plant response rating (scale of 0 to 100), Bluegrass","[5]; Preemergence, 31 g ai/ha",25
same,"Plant response rating, Bluegrass",[5]; [20],35
same,"Plant response rating, Bluegrass",[5]; [17],45
same,"Plant response rating, Bluegrass",[5]; [18],70
same,"Plant response rating, Bluegrass",[5]; [19],25
same,Field Poppy plant response rating,[6]; [14],70
same,"Plant response rating, Field Poppy",[6]; [15],85
same,"Plant response rating, Field Poppy",[6]; [16],100
same,"Plant response rating (scale of 0 to 100), Field Poppy","[6]; Preemergence, 31 g ai/ha",100
same,"Plant response rating (scale of 0 to 100), Field Poppy","[6]; Preemergence, 62 g ai/ha",100
same,"Plant response rating, Field Poppy",[6]; [17],100
same,"Plant response rating, Field Poppy",[6]; [18],100
same,"Plant response rating, Field Poppy",[6]; [19],85
same,"Ryegrass, Italian plant response rating",[7]; [14],90
same,"Plant response rating, Ryegrass, Italian",[7]; [15],95
same,"Plant response rating, Ryegrass, Italian",[7]; [16],98
same,"Plant response rating (scale of 0 to 100), Ryegrass, Italian","[7]; Preemergence, 31 g ai/ha",90
same,"Plant response rating (scale of 0 to 100), Ryegrass, Italian","[7]; Preemergence, 62 g ai/ha",95
same,"Plant response rating, Ryegrass, Italian",[7]; [17],98
same,"Plant response rating, Ryegrass, Italian",[7]; [18],98
same,"Plant response rating, Ryegrass, Italian",[7]; [19],95
same,Pigweed plant response rating,[8]; [14],95
same,"Plant response rating, Pigweed",[8]; [15],100
same,"Plant response rating, Pigweed",[8]; [16],100
same,"Plant response rating (scale of 0 to 100), Pigweed","[8]; Preemergence, 31 g ai/ha",50
same,"Plant response rating (scale of 0 to 100), Pigweed","[8]; Preemergence, 62 g ai/ha",100
same,"Plant response rating, Pigweed",[8]; [17],100
same,"Plant response rating, Pigweed",[8]; [18],100
same,"Plant response rating, Pigweed",[8]; [19],100
same,Kochia plant response rating,[9]; [14],85
same,"Plant response rating, Kochia",[9]; [15],90
same,"Plant response rating, Kochia",[9]; [16],95
same,"Plant response rating (scale of 0 to 100), Kochia","[9]; Preemergence, 31 g ai/ha",0
same,"Plant response rating (scale of 0 to 100), Kochia","[9]; Preemergence, 62 g ai/ha",55
same,"Plant response rating, Kochia",[9]; [17],100
same,"Plant response rating, Kochia",[9]; [18],100
same,"Plant response rating, Kochia",[9]; [19],90
same,"Foxtail, Green plant response rating",[10]; [14],70
same,"Plant response rating, Foxtail, Green",[10]; [15],80
same,"Plant response rating, Foxtail, Green",[10]; [16],90
same,"Plant response rating (scale of 0 to 100), Foxtail, Green","[10]; Preemergence, 31 g ai/ha",10
same,"Plant response rating (scale of 0 to 100), Foxtail, Green","[10]; Preemergence, 62 g ai/ha",55
same,"Plant response rating, Foxtail, Green",[10]; [17],95
same,"Plant response rating, Foxtail, Green",[10]; [18],95
same,"Plant response rating, Foxtail, Green",[10]; [19],75
same,"Buckwheat, Wild plant response rating",[11]; [14],85
same,"Plant response rating, Buckwheat, Wild",[11]; [15],100
same,"Plant response rating, Buckwheat, Wild",[11]; [16],100
same,"Plant response rating (scale of 0 to 100), Buckwheat, Wild","[11]; Preemergence, 31 g ai/ha",0
same,"Plant response rating, Buckwheat, Wild",[11]; [20],0
same,"Plant response rating, Buckwheat, Wild",[11]; [17],0
same,"Plant response rating, Buckwheat, Wild",[11]; [18],60
same,"Plant response rating, Buckwheat, Wild",[11]; [19],100
same,Chickweed plant response rating,[12]; [14],85
same,"Plant response rating, Chickweed",[12]; [15],100
same,"Plant response rating, Chickweed",[12]; [16],100
same,"Plant response rating (scale of 0 to 100), Chickweed","[12]; Preemergence, 31 g ai/ha",100
same,"Plant response rating (scale of 0 to 100), Chickweed","[12]; Preemergence, 62 g ai/ha",100
same,"Plant response rating, Chickweed",[12]; [17],100
same,"Plant response rating, Chickweed",[12]; [18],100
same,"Plant response rating, Chickweed",[12]; [19],90
same,"Wheat, Winter plant response rating",[13]; [14],0
same,"Plant response rating, Wheat, Winter",[13]; [15],0
same,"Plant response rating, Wheat, Winter",[13]; [16],5
same,"Plant response rating (scale of 0 to 100), Wheat, Winter","[13]; Preemergence, 31 g ai/ha",0
same,"Plant response rating (scale of 0 to 100), Wheat, Winter","[13]; Preemergence, 62 g ai/ha",0
same,"Plant response rating, Wheat, Winter",[13]; [17],0
same,"Plant response rating, Wheat, Winter",[13]; [18],15
same,"Plant response rating, Wheat, Winter",[13]; [19],0

# — patent US10597388B2, “Pyridazinone herbicides” (FMC CORPORATION, priority 2014, dated 2020)
